Test results: US11878008B2, “Composition for preventing or treating atopic dermatitis” (AMOREPACIFIC CORPORATION, priority 2017, dated 2024)
“Also recorded” adds a separate entry of the source.

What was measured:
[1] = Change in body temperature after oral administration in mice; format: in vivo, Balb/c mice; settings: for change in body temperature, dose dependence: up to 4 hours, AMG 517 0.03, 0.1, 0.3 mg/kg, compound of Formula 1 3, 10, 30 mg/kg, FIGS. 2A, 2B
From the text: Meanwhile, when the same drug was orally administered, a concentration-dependent increase in body temperature due to TRPV1 antagonism was observed as expected (see FIGS. 2A and 2B).

[2] = cited from earlier work
[3] = rats; cited from earlier work
[4] = rats, oral dose of 3 mg/kg; cited from earlier work
[5] = C57BL/6, mouse, in vivo, 2 h
Experimental: As described above, AMG 517, a representative reference drug as a TRPV1 antagonist, and the compound of Formula 1 of the present invention were tested for the increase in body temperature during transdermal administration.

[6] = Change in body temperature in healthy volunteers after oral administration; format: in vivo, human; settings: oral 5 mg or 10 mg once a day for 8 days; healthy adult volunteers; FIGS. 6A, 6B
Experimental: Ten healthy adult volunteers were divided into two groups, and the compound of Formula 1 was orally administered to the volunteers in each of the groups at a dose of 5 mg or 10 mg once a day for 8 days. Thereafter, a placebo was administered to the two volunteers in each of the groups, and the body temperatures were measured for 14 days. Then, the mean body temperature of the volunteers and a change in body temperature were determined.

[7] = Change in body temperature in healthy volunteers after percutaneous administration; format: in vivo, human; settings: percutaneous application to back skin, 7 to 30 days
From the text: The composition of Example 1 including the compound of Formula 1 was percutaneously applied to healthy volunteers other than the patients with atopic dermatitis to check a change in body temperature.
The 24 healthy adult volunteers were divided into three groups, and the volunteers in each of the groups were then randomly allocated into a test group of 6 volunteers (Example 1) and a placebo group of 2 volunteers (Comparative Example 1). The same clinician applied the composition onto the volunteers' back skins at a dose of 5, 15, 50 mg per 5 g every morning according to a predetermined administration method. In this case, the composition was applied for 7, 15, 30 days with a size of 25×40 cm and an area of 1,000 cm^2.
A range of the body temperatures measured for the 24 volunteers in a clinical trial period was in a range of 35.4 to 37.3° C. The results of the changes in body temperatures from the baseline before the drug administration in each of the groups are as listed in the following Table 13.

SMILES	change in body temperature at lowest dose ([1]; 0.03 mg/kg)	change in body temperature, dose dependence [1]	concentration dependence of hyperthermia ([2]; oral administration for treatment of dental pain/toothache)	body temperature increased to ([2]; oral, group administered a dose of 25 mg) [°C]	effective concentration to maximize analgesic efficacy [3]	body temperature increase [4]	increase in body temperature [5] [°C]	body temperature change, dose dependence [6]	clinically significant findings associated with changes in body temperature [7]
CC(=O)Nc1nc2c(Oc3cc(-c4ccc(C(F)(F)F)cc4)ncn3)cccc2s1 [AMG 517]	significantly increased body temperature	increased body temperature in a dose-dependent manner	concentration-dependent side effect of hyperthermia; also recorded: increased body temperature, which was proportional to a serum AMG 517 concentration	39.9	less than 0.3 mg/kg	about 1.3 °C	~1.59		
CCCc1nc(C(F)(F)F)ccc1/C=C/C(=O)N[C@H](C)c1cc(F)c(NS(C)(=O)=O)c(F)c1 [compound of Formula 1, (R)-N-[1-(3,5-difluoro-4-methanesulfonylamino-phenyl)-ethyl]-3-(2-propyl-6-trifluoromethyl-pyridin-3-yl)-acrylamide]		increased body temperature in a dose-dependent manner					~0.84	increased the body temperature in a dose-dependent manner; also recorded: increased body temperature (hyperthermia) were caused in a concentration-dependent manner	such an increase in body temperature was not observed
